Experimental data as given in ChEMBL document CHEMBL1287811, “Two new cytotoxic labdane diterpenes from the rhizomes of Hedychium coronarium” (2010).

Tests used:
Type in all cases: functional
A549 = test: Growth inhibition of human A549 cells by Sulforhodamine B assay; details: for CC50: read-out: LC50 (the source's name)
SK-N-SH = test: Growth inhibition of human SK-N-SH cells by Sulforhodamine B assay
MCF7 = test: Growth inhibition of human MCF7 cells by Sulforhodamine B assay
HeLa = test: Growth inhibition of human HeLa cells by Sulforhodamine B assay

`CC1(C)CCC[C@]2(C)[C@@H](/C=C/C3=CC(=O)OC3)C(CO)=C(O)C(=O)[C@@H]12` showed a GI50 (A549) of 26 µM, a CC50 (A549) of 48.7 µM and a GI50 (SK-N-SH) of 12.1 µM. The LC50 (SK-N-SH) was 19.3 µM, the GI50 (MCF7) was 12 µM and the LC50 (concentration killing 50% of cells) (MCF7) was 15.4 µM. For the same molecule, the GI50 (HeLa) was 79.7 µM and the LC50 (HeLa) was greater than 100 µM.

`CC1=CC(=O)[C@H]2C(C)(C)CCC[C@]2(C)C1/C=C/C1=CC(O)OC1=O` (some centres not stated) gave a GI50 (A549) of 10.6 µM, a CC50 (A549) of 21.2 µM and a GI50 (SK-N-SH) of 17.5 µM. It also gave an LC50 (SK-N-SH) of 22.8 µM, a GI50 (MCF7) of 28.5 µM and an LC50 (concentration killing 50% of cells) (MCF7) of 34.8 µM. The GI50 (HeLa) was greater than 100 µM and the LC50 (HeLa) was greater than 100 µM.

For `C=C1CC[C@H]2C(C)(C)CCC[C@]2(C)[C@H]1CCC1=CC(O)OC1=O` (some centres not stated) [CORONARIN C], the GI50 (A549) was 4.8 µM, the CC50 (A549) was 9.5 µM and the GI50 (SK-N-SH) was 25.8 µM. The LC50 (SK-N-SH) was 33.7 µM, the GI50 (MCF7) was 32.6 µM and the LC50 (concentration killing 50% of cells) (MCF7) was 40.7 µM. It also gave a GI50 (HeLa) of 36.3 µM and an LC50 (HeLa) of 45.9 µM.

`CC1=CC(=O)[C@H]2C(C)(C)CCC[C@]2(C)[C@H]1/C=C/c1ccoc1` [HEDYCHENONE] gave a GI50 (A549) of 7.4 µM, a CC50 (A549) of 14 µM and a GI50 (SK-N-SH) of 11.6 µM. It also gave an LC50 (SK-N-SH) of 17.2 µM, a GI50 (MCF7) of 14.9 µM and an LC50 (concentration killing 50% of cells) (MCF7) of 19.8 µM. The GI50 (HeLa) was 63.2 µM and the LC50 (HeLa) was 81.5 µM.

`C=C1CC[C@H]2C(C)(C)CCC[C@]2(C)[C@H]1C/C=C1/CC(O)OC1=O` (some centres not stated) [CORONARIN D] gave a GI50 (A549) of 8 µM, a CC50 (A549) of 14 µM and a GI50 (SK-N-SH) of 20.1 µM. It also gave an LC50 (SK-N-SH) of 32 µM, a GI50 (MCF7) of 17.4 µM and an LC50 (concentration killing 50% of cells) (MCF7) of 21.9 µM. For the same molecule, the GI50 (HeLa) was 47 µM and the LC50 (HeLa) was 60.6 µM.

`C=C1C(C/C=C2\COC(=O)C2)[C@@]2(C)CCCC(C)(C)[C@@H]2C[C@@H]1O` (some centres not stated) [PACOVATININ A] gave a GI50 (A549) of 15.1 µM, a CC50 (A549) of 36.2 µM and a GI50 (SK-N-SH) of 54.8 µM. It also gave an LC50 (SK-N-SH) of 59.9 µM, a GI50 (MCF7) of 44.7 µM and an LC50 (concentration killing 50% of cells) (MCF7) of 55.6 µM. It also gave a GI50 (HeLa) of 62.1 µM and an LC50 (HeLa) of 80.7 µM.

`CC(C)(O)C1CC[C@@]2(C)CCC[C@@](C)(O)[C@@H]2C1` (some centres not stated) [CRYPTOMERIDIOL] showed a GI50 (A549) of 14.5 µM, a CC50 (A549) of 27.4 µM and a GI50 (SK-N-SH) of 73.6 µM. The GI50 (MCF7) was 62.3 µM and the GI50 (HeLa) was 75.6 µM.

With `CC1(C)CCC[C@]2(C)[C@@H](/C=C/C3=CCOC3=O)C(C=O)=CC(=O)[C@@H]12` the GI50 (A549) was 18.5 µM, the CC50 (A549) was 45.9 µM and the GI50 (SK-N-SH) was 38.7 µM. It also gave an LC50 (SK-N-SH) of 48.5 µM, a GI50 (MCF7) of 69.9 µM and an LC50 (concentration killing 50% of cells) (MCF7) greater than 100 µM. For the same molecule, the GI50 (HeLa) was 76.9 µM and the LC50 (HeLa) was greater than 100 µM.

`CCOC(=O)/C=C/c1ccc(O)c(OC)c1` [ETHYL FERULATE] gave a GI50 (A549) of 1.2 µM, a CC50 (A549) of 5.8 µM and a GI50 (SK-N-SH) of 22.3 µM. The GI50 (MCF7) was 86.3 µM and the GI50 (HeLa) was 52.8 µM.

Molecule `COc1cc(/C=C/C=O)ccc1O` [CONIFERYL ALDEHYDE] has a GI50 (A549) of 1.7 µM, a CC50 (A549) of 11.4 µM and a GI50 (SK-N-SH) of 10.6 µM. It also gave a GI50 (MCF7) of 39.5 µM and a GI50 (HeLa) of 61.8 µM.

`COC(=O)Nc1nc2cc(C(=O)c3cccs3)ccc2[nH]1` [NOCODAZOLE] showed a GI50 (A549) of less than 0.1 µM, a CC50 (A549) of less than 0.1 µM and a GI50 (SK-N-SH) of 0.66 µM. The GI50 (MCF7) was less than 0.1 µM and the GI50 (HeLa) was 0.75 µM.

`C=C1CC[C@H]2C(C)(C)CCC[C@]2(C)[C@H]1C/C=C1/CC(OC)OC1=O` (some centres not stated) [CORONARIN D METHYL ETHER] gave a GI50 (A549) of 30 µM, a CC50 (A549) of 71.3 µM and a GI50 (SK-N-SH) of 13.6 µM. For the same molecule, the LC50 (SK-N-SH) was 19.1 µM, the GI50 (MCF7) was 25.3 µM and the LC50 (concentration killing 50% of cells) (MCF7) was 31.6 µM. It also gave a GI50 (HeLa) greater than 100 µM and an LC50 (HeLa) greater than 100 µM.

With `CC1=CC(=O)[C@H]2C(C)(C)CCC[C@]2(C)[C@H]1/C=C/C1=CCOC1=O` the GI50 (A549) was 21.7 µM, the CC50 (A549) was 39.6 µM and the GI50 (SK-N-SH) was 8.2 µM. The LC50 (SK-N-SH) was 20.8 µM, the GI50 (MCF7) was 15.7 µM and the LC50 (concentration killing 50% of cells) (MCF7) was 19.8 µM. For the same molecule, the GI50 (HeLa) was 83.6 µM and the LC50 (HeLa) was greater than 100 µM.
